Experimental data from US8080546B2, “Pyrazolo-pyridinone derivatives and methods of use” (Amgen Inc., priority 2007, dated 2011).

Assays:
THP1 cells = assay: Lipopolysaccharide-activated THP1 cell TNF production assay (THP1 cell based); conditions: Homo sapiens, THP-1, LPS-induced TNF-α
Description: Lipopolysaccharide-Activated THP1 Cell TNF Production Assay
THP1 cells are resuspended in fresh THP1 media (RPMI 1640, 10% heat-inactivated FBS, 1XPGS, 1XNEAA, plus 30 μM PME) at a concentration of 1E6/mL. One hundred microliters of cells per well are plated in a polystyrene 96-well tissue culture. One microgram per mL of bacterial LPS is prepared in THP1 media and is transferred to the wells. Test compounds are dissolved in 100% DMSO and are serially diluted 3-fold in a polypropylene 96-well microtiter plate (drug plate). HI control and LO control wells contain only DMSO. One microliter of test compound from the drug plate followed by 10 μL of LPS are transferred to the cell plate. The treated cells are induced to synthesize and secrete TNF-α at 37° C. for 3 h. Forty microliters of conditioned media are transferred to a 96-well polypropylene plate containing 110 μL of ECL buffer (50 mM Tris-HCl pH 8.0, 100 mM NaCl, 0.05% Tween 20, 0.05% NaN3 and 1% FBS) supplemented with 0.44 nM MAB610 monoclonal Ab (R&D Systems), 0.34 nM ruthenylated AF210NA polyclonal Ab (R&D Systems) and 44 μg/mL sheep anti-mouse M280 Dynabeads (Dynal). After a 2 h incubation at room temperature with shaking, the reaction is read on the ECL M8 Instrument (IGEN Inc.). A low voltage is applied to the ruthenylated TNF-α immune complexes, which in the presence of TPA (the active component in Origlo), results in a cyclical redox reaction generating light at […]. The amount of secreted TNF-α in the presence of compound compared with that in the presence of DMSO vehicle alone (HI control) is calculated using the formula: % control (POC)=(cpd−average LO)/(average HI−average LO)*100. Data (consisting of POC and inhibitor concentration in μM) is fitted to a 4-parameter equation (y=A+((B−A)/(1+((x/C)^D))), where A is the minimum y (POC) value, B is the maximum y (POC), C is the x (cpd concentration) at the point of inflection and D is the slope factor) using a Levenburg-Marquardt non-linear regression algorithm.

p38 = p38 (Homo sapiens, UniProt Q16539); assay: p38 in-vitro HTRF enzyme assay; format: biochemical; conditions: recombinant human enzyme; range symbols; read-out: p38 enyme HTRF assay IC50
Description: p38 In-Vitro HTRF Enzyme Assay
The compounds of the invention can be tested for their respective affinities for the p38 protein using a conventional p38 in-vitro enzyme activity assay. For example, a P38-alpha HTRF assay may be used to measure the protein's in-vitro phosphorylation activity, and the data analyzed using time resolved fluorimetry techniques (FRET). A p38 HTRF assay is as follows. The kinase reaction buffer for p38α, p38β, p38δ and p38γ HTRF assays consists of 50 mM Tris-pH 7.5, 5 mM MgCl2, 0.1 mg/mL BSA, 100 μM Na3VO4 and 0.5 mM DTT. The HTRF detection buffer contains 100 mM HEPES-pH 7.5, 100 mM NaCl, 0.1% BSA, 0.05% Tween-20, and 10 mM EDTA. Each compound was dissolved in 100% DMSO and serially diluted (3 fold, 10 point) in a polypropylene 96-well microtiter plate (drug plate). The final starting concentration of the compound in the p38α and p38β enzymatic assays was about 1 μM. The final starting concentration of each compound in the p38δ and p38γ enzymatic assays was about 10 μM. The p38α, p38β, p38δ and p38γ kinase reactions were carried out in a polypropylene 96-well black round bottom assay plate in total volume of 30 μL kinase reaction buffer. Appropriate concentration of purified and activated enzyme (recombinant human) was mixed with indicated concentration of ATP and 100 nM GST-ATF2-Avitag, in the presence or absence (HI control) of each compound. In the absence of enzyme, the background was measured as LO control. HI controls and LO controls contained only DMSO. The reaction was allowed to incubate for 1 hour at RT. […] After 60 minutes incubation at room temperature, the assay plate was read in a Discovery Plate Reader. […] The resulting data was analyzed by taking the proportion of substrate phosphorylated in the kinase reaction in the presence of each individual compound and comparing it with that phosphorylated in the presence of DMSO vehicle alone (HI control). The data was calculated using the formula: % control (POC)=(compound−average LO)/(average HI−average LO)*100. […] All results were expressed as the mean±the standard error of the mean. Data acquisition and non-linear regression algorithms were performed using Activity Base v5.2 and XLfit software v4.1 respectively. Additional assay information may be obtained in Park Y W, Cummings R T, Wu L, et al. Homogeneous Proximity Tyrosine Kinase Assays Scintillation Proximity Assay versus Homogeneous Time-Resolved Fluorescence. Analytical Biochemistry.

IL-1 = assay: LPS induced IL-1 cell based assay (LPS-activated monocytes); conditions: Homo sapiens, Monocyte
Description: Lipopolysaccharide-Activated Monocyte TNF Production Assay
Test compounds were evaluated in vitro for the ability to inhibit the production of TNF by monocytes activated with bacterial lipopolysaccharide (LPS). Fresh residual source leukocytes (a byproduct of plateletpheresis) were obtained from a local blood bank, and peripheral blood mononuclear cells (PBMCs) were isolated by density gradient centrifugation on Ficol-Paque Plus (Pharmacia). PBMCs were suspended at 2×10^6/mL in DMEM supplemented to contain 2% FCS, 10 mM, 0.3 mg/mL […], 100 U/mL penicillin G and […] streptomycin sulfate (complete media). Cells were plated into Falcon flat bottom, 96 well culture plates (200 μL/well) and cultured overnight at 37° C. and 6% CO2. Non-adherent cells were removed by washing with 200 μl/well of fresh medium. Wells containing adherent cells (˜70% monocytes) were replenished with 100 μL of fresh medium.
Preparation of Test Compound Stock Solutions
Test compounds were dissolved in […]. Compound stock solutions were prepared to an initial concentration of […]. Stocks were diluted initially to 20-200 μM in complete media. Nine two-fold serial dilutions of each compound were then prepared in complete medium.
Treatment of Cells with Test Compounds and Activation of TNF Production with Lipopolysaccharide
One hundred microliters of each test compound dilution were added to microtiter wells containing adherent monocytes and 100 μL complete medium. Monocytes were cultured with test compounds for 60 min at which time 25 μL of complete medium containing 30 ng/mL lipopolysaccharide from E. coli K532 were added to each well. Cells were cultured an additional 4 hrs. Culture supernatants were then removed and TNF presence in the supernatants was quantified using an ELISA. […]
Standard curve data were fit to a second order polynomial and unknown TNF-α concentrations determined from their OD by solving this equation for concentration. TNF concentrations were then plotted vs. test compound concentration using a second order polynomial. This equation was then used to calculate the concentration of test compounds causing a 50% reduction in TNF production.
Compounds of the invention can also be shown to inhibit LPS-induced release of IL-1β, IL-6 and/or IL-8 from monocytes by measuring concentrations of IL-1β, IL-6 and/or IL-8 by methods well known to those skilled in the art. […] Thus, the compounds of the invention may lower elevated levels of TNF-α, IL-1, IL-6, and IL-8 levels. Reducing elevated levels of these inflammatory cytokines to basal levels or below is favorable in controlling, slowing progression, and alleviating many disease states.

Chain of p38 (Q16539 whole entry): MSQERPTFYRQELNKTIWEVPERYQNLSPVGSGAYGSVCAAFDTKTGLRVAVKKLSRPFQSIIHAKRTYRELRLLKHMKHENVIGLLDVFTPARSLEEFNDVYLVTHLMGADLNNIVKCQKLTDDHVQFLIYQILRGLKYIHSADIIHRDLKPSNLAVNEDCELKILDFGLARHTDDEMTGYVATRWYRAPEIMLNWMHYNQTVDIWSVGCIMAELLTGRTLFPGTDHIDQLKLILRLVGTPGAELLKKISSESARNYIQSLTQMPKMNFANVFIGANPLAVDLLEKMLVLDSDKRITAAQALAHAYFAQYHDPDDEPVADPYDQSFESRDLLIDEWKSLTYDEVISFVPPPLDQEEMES

SMILES	IC50 (THP1 cells; range symbols) [nM]	IC50 (p38) [nM]	IC50 (IL-1; range symbols) [nM]	IC50 (THP1 cells; actual values) [nM]	IC50 (IL-1; actual values) [nM]
Cc1ccc(C(=O)NC2CC2)cc1Nc1cc(=O)n(C)c2c1cnn2-c1cccc(F)c1 [Example 4, N-cyclopropyl-3-((1-(3-fluorophenyl)-7-methyl-6-oxo-6,7-dihydro-1H-pyrazolo[3,4-b]pyridin-4-yl)amino)-4-methylbenzamide]	< 25	< 25	< 25		
Cc1ccc(C(=O)NC2CC2)cc1Oc1cc(=O)n(C)c2c1cnn2-c1cccc(F)c1 [Example 5, N-cyclopropyl-3-((1-(3-fluorophenyl)-7-methyl-6-oxo-6,7-dihydro-1H-pyrazolo[3,4-b]pyridin-4-yl)oxy)-4-methylbenzamide]	< 25	< 25	100 to 249		
Cn1c(=O)cc(Nc2cc(C(=O)NC3CC3)ccc2F)c2cnn(-c3ccc(F)cc3F)c21 [Example 7, N-cyclopropyl-3-((1-(2,4-difluorophenyl)-7-methyl-6-oxo-6,7-dihydro-1H-pyrazolo[3,4-b]pyridin-4-yl)amino)-4-fluorobenzamide]	< 25	< 25	25 to 99		
Cc1ccncc1Nc1cc(=O)n(C)c2c1cnn2-c1cc(F)ccc1F [Example 8, 1-(2,5-difluorophenyl)-7-methyl-4-((4-methyl-3-pyridinyl)amino)-1,7-dihydro-6H-pyrazolo[3,4-b]pyridin-6-one]	100 to 249	1000 to 5000	250 to 999		
Cn1c(=O)cc(Nc2ccc(F)cc2F)c2cnn(-c3ccc(F)cc3F)c21 [Example 9, 1-(2,4-difluorophenyl)-4-((2,4-difluorophenyl)amino)-7-methyl-1,7-dihydro-6H-pyrazolo[3,4-b]pyridin-6-one]	250 to 999	1000 to 5000	1000 to 5000		
Cn1c(=O)cc(Nc2ccc(F)cc2)c2cnn(-c3c(F)cccc3F)c21 [Example 10, 1-(2,6-difluorophenyl)-4-((4-fluorophenyl)amino)-7-methyl-1,7-dihydro-6H-pyrazolo[3,4-b]pyridin-6-one]	250 to 999	1000 to 5000	1000 to 5000		
Cn1c(=O)cc(Nc2cc(C(=O)NC3CC3)ccc2Cl)c2cnn(-c3c(F)cccc3F)c21 [Example 11, 4-chloro-N-cyclopropyl-3-((1-(2,6-difluorophenyl)-7-methyl-6-oxo-6,7-dihydro-1H-pyrazolo[3,4-b]pyridin-4-yl)amino)benzamide]	< 25	< 25	< 25		
Cn1c(=O)cc(Nc2cc(C(=O)NC3CC3)ccc2Cl)c2cnn(-c3cc(F)ccc3F)c21 [Example 12, 4-chloro-N-cyclopropyl-3-((1-(2,5-difluorophenyl)-7-methyl-6-oxo-6,7-dihydro-1H-pyrazolo[3,4-b]pyridin-4-yl)amino)benzamide]	< 25	< 25	< 25		
Cn1c(=O)cc(Nc2cc(C(=O)NC3CC3)ccc2Cl)c2cnn(-c3ccc(F)cc3F)c21 [Example 13, 4-chloro-N-cyclopropyl-3-((1-(2,4-difluorophenyl)-7-methyl-6-oxo-6,7-dihydro-1H-pyrazolo[3,4-b]pyridin-4-yl)amino)benzamide]	< 25		< 25		
Cc1ccc(C(=O)NC2CC2)cc1Nc1cc(=O)n(C)c2c1cnn2-c1ccc(F)cc1F [Example 14, N-cyclopropyl-3-((1-(2,4-difluorophenyl)-7-methyl-6-oxo-6,7-dihydro-1H-pyrazolo[3,4-b]pyridin-4-yl)amino)-4-methylbenzamide]	< 25		< 25		
Cc1ccc(C(=O)NC2CC2)cc1Nc1cc(=O)n(C)c2c1cnn2-c1c(F)cccc1F [Example 15, N-cyclopropyl-3-((1-(2,6-difluorophenyl)-7-methyl-6-oxo-6,7-dihydro-1H-pyrazolo[3,4-b]pyridin-4-yl)amino)-4-methylbenzamide]	< 25	< 25	< 25		
Cc1ccc(C(=O)NC2CC2)cc1Oc1cc(=O)n(C)c2c1cnn2-c1c(F)cccc1F [Example 16, N-cyclopropyl-3-((1-(2,6-difluorophenyl)-7-methyl-6-oxo-6,7-dihydro-1H-pyrazolo[3,4-b]pyridin-4-yl)oxy)-4-methylbenzamide]	< 25	< 25	25 to 99		
Cc1ccc(C(=O)NC(C)(C)C)cc1Nc1cc(=O)n(C)c2c1cnn2-c1ccc(F)cc1F [Example 25, N-tert-butyl-3-((1-(2,4-difluorophenyl)-7-methyl-6-oxo-6,7-dihydro-1H-pyrazolo[3,4-b]pyridin-4-yl)amino)-4-methylbenzamide]	25 to 99		100 to 249		
Cn1c(=O)cc(Oc2cc(C(=O)NC3CC3)ccc2Cl)c2cnn(-c3cc(F)ccc3F)c21 [Example 26, 4-chloro-N-cyclopropyl-3-((1-(2,5-difluorophenyl)-7-methyl-6-oxo-6,7-dihydro-1H-pyrazolo[3,4-b]pyridin-4-yl)oxy)benzamide]				8.2	101
